From publication PMC8617681 (Pharmaceuticals, 2021)
Like-named read-outs stand apart in the source and are kept apart here.

Columns and labels:
[1] = 4 h main pharmacokinetic experiment in wild-type, Abcb1a/1b-/-, Abcg2-/- and Abcb1a/1b;Abcg2-/- mice; assay type: in vivo; conditions: 10 mg/kg oral, 4 h main experiment; for Cmax / Tmax / concentration at 4 h / AUC(0-t): mouse; for Cmax / Tmax / AUC(0-t): plasma; for concentration at 4 h / AUC(0-t): male, po, 10 mg/kg; for AUC(0-t): read-out: AUC0–4h
Experimental: Mice were housed and handled according to institutional guidelines complying with Dutch and EU legislation. All experimental animal protocols were evaluated and approved by the institutional animal care and use committee. Wild-type, Abcb1a/1b^-/-, Abcg2^-/-, Abcb1a/1b; Abcg2^-/-, Slco1a/1b^-/- male mice, and Cyp3a^-/- and Cyp3aXAV female mice, all of a >99% FVB genetic background, were used between 9 and 16 weeks of age. […] All experimental animal protocols (WP9450, 9669, 9760), including power calculations, designed under the nationally approved DEC/CCD project AVD301002016595, were evaluated and approved by the institutional animal care and use committee of The Netherlands Cancer Institute. […]
(§1) For the 4 h transporter experiments, tail-vein blood samples were collected at 0.125, 0.25, 0.5, 1, and 2 h time points after oral administration, respectively. For the CYP3A 8 h experiments, tail-vein blood sampling was performed at 0.25, 0.5, 1, 2, and 4 h, respectively. While for elacridar inhibition experiments, tail-vein blood samples were collected at 0.125, 0.25, 0.5, and 1 h time points after oral administration, respectively. Blood sample collection was performed using microvettes containing dipotassium EDTA. At the last time point in each experiment (2, 4 or 8 h), mice were anesthetized with 5% isoflurane and blood was collected by cardiac puncture. Blood samples were collected in Eppendorf tubes containing heparin as an anticoagulant. The mice were then sacrificed by cervical dislocation and brain, liver, kidney, lung, small intestine and testis were rapidly removed. Plasma was isolated from the blood by centrifugation at 9000× g for 6 min at 4 °C, and the plasma fraction was collected and stored at −30 °C until analysis. Organs were homogenized with 4% (w/v) bovine serum albumin and stored at −30 °C until analysis.
Pharmacokinetic parameters were calculated by noncompartmental methods using the PK solver software. The area under the plasma concentration–time curve (AUC) was calculated using the trapezoidal rule, without extrapolating to infinity. The peak plasma concentration (Cmax) and the time of maximum plasma concentration (Tmax) were estimated from the original (individual mouse) data. One-way analysis of variance (ANOVA) was used when multiple groups were compared and the Tukey post hoc correction was used to accommodate multiple testing. The two-sided unpaired Student’s t-test was used when treatments or differences between two specific groups were compared using the software GraphPad Prism 8 (GraphPad Software Inc., La Jolla, CA, USA). All the data were log-transformed before statistical tests were applied. Differences were considered statistically significant when p < 0.05. All data are presented as geometric mean ± SD.

[2] = Oral selpercatinib pharmacokinetics in mice, summarised over the studies; assay type: in vivo; conditions: FVB (wild-type), mouse, plasma, 10 mg/kg oral, average
Experimental: as §1
Pharmacokinetic parameters were calculated by noncompartmental methods using the PK solver software. The area under the plasma concentration–time curve (AUC) was calculated using the trapezoidal rule, without extrapolating to infinity. […]

[3] = patients; cited from earlier work
[4] = FVB (Abcb1a/1b-/-), male Abcb1a/1b-/- mice
[5] = FVB (Abcb1a/1b;Abcg2-/-), male Abcb1a/1b;Abcg2-/- mice
[6] = FVB (Abcg2-/-), male Abcg2-/- mice
[7] = FVB (wild-type), male wild-type mice

COc1ccc(CN2C3CC2CN(c2ccc(-c4cc(OCC(C)(C)O)cn5ncc(C#N)c45)cn2)C3)cn1 [selpercatinib]
Cmax [1, 4]: 10300 ng/mL
Tmax [1, 4]: 1.8 ± 1.3 h
Cmax [1, 5]: 11000 ng/mL
Tmax [1, 5]: 1.5 ± 1.3 h
Cmax [1, 6]: 11400 ng/mL
Tmax [1, 6]: 1.4 ± 0.74 h
Cmax [1, 7]: 6910 ± 761 ng/mL
Tmax [1, 7]: 1.6 ± 1.4 h
SIC percentage of dose ([1]; male Abcb1a/1b-/- mice): 1.1 ± 0.3%
SIC percentage of dose ([1]; male Abcb1a/1b;Abcg2-/- mice): 0.69 ± 0.52 %
SIC percentage of dose ([1]; male Abcg2-/- mice): 1.6 ± 0.7 %
SIC percentage of dose ([1]; male wild-type mice): 2.3 ± 0.9%
concentration at 4 h ([1]; FVB (Abcb1a/1b-/-), brain, male Abcb1a/1b-/- mice, read-out: Cbrain): 2000 ± 233 ng/g
concentration at 4 h ([1]; FVB (Abcb1a/1b;Abcg2-/-), brain, male Abcb1a/1b;Abcg2-/- mice, read-out: Cbrain): 4260 ± 853 ng/g
AUC(0-t) [1, 5]: 39000 ng·h/mL
concentration at 4 h ([1]; FVB (Abcg2-/-), brain, male Abcg2-/- mice, read-out: Cbrain): 418 ± 102 ng/g
concentration at 4 h ([1]; FVB (wild-type), brain, male wild-type mice, read-out: Cbrain): 420 ± 66 ng/g
concentration at 4 h ([1]; FVB, liver, male Abcb1a/1b-/- mice, read-out: CLiver): 34000 ng/g
concentration at 4 h ([1]; FVB, liver, male Abcb1a/1b;Abcg2-/- mice, read-out: CLiver): 23200 ng/g
concentration at 4 h ([1]; FVB, liver, male Abcg2-/- mice, read-out: CLiver): 19300 ng/g
concentration at 4 h ([1]; FVB, liver, male wild-type mice, read-out: CLiver): 25700 ng/g
AUC(0-t) ([1]; FVB, male Abcb1a/1b-/- mice): 37000 ng·h/mL
AUC(0-t) ([1]; FVB, male Abcg2-/- mice): 39100 ng·h/mL
AUC(0-t) ([1]; FVB, male wild-type mice): 23700 ng·h/mL
concentration at 4 h ([1]; FVB, small intestine contents, male Abcb1a/1b-/- mice, read-out: CSIC (small intestine contents concentration)): 69400 ng/g
concentration at 4 h ([1]; FVB, small intestine contents, male Abcb1a/1b;Abcg2-/- mice, read-out: CSIC (small intestine contents concentration)): 27400 ng/g
concentration at 4 h ([1]; FVB, small intestine contents, male Abcg2-/- mice, read-out: CSIC (small intestine contents concentration)): 91700 ng/g
concentration at 4 h ([1]; FVB, small intestine contents, male wild-type mice, read-out: CSIC (small intestine contents concentration)): 98100 ng/g
concentration at 4 h ([1]; FVB, small intestine, male Abcb1a/1b-/- mice, read-out: CSI (small intestine tissue concentration)): 17000 ng/g
concentration at 4 h ([1]; FVB, small intestine, male Abcb1a/1b;Abcg2-/- mice, read-out: CSI (small intestine tissue concentration)): 11600 ng/g
concentration at 4 h ([1]; FVB, small intestine, male Abcg2-/- mice, read-out: CSI (small intestine tissue concentration)): 13000 ng/g
concentration at 4 h ([1]; FVB, small intestine, male wild-type mice, read-out: CSI (small intestine tissue concentration)): 21600 ng/g
concentration at 4 h ([1]; FVB, testis, male Abcb1a/1b-/- mice, read-out: Ctestis): 3480 ± 634 ng/g
concentration at 4 h ([1]; FVB, testis, male Abcb1a/1b;Abcg2-/- mice, read-out: Ctestis): 8330 ± 935 ng/g
concentration at 4 h ([1]; FVB, testis, male Abcg2-/- mice, read-out: Ctestis): 1050 ± 192 ng/g
concentration at 4 h ([1]; FVB, testis, male wild-type mice, read-out: Ctestis): 811 ± 148 ng/g
Cmax [2]: ~8000 ng/mL
AUC0–24h [3]: 51,600 ng/mL*h
average Cmax [3]: 2980 ng/mL
